Source: patent US7910575B2, “Prophylactic or therapeutic agents for allergic ophthalmic diseases or allergic nasal diseases, comprising tricyclic triazolobenzazepine derivative” (Meiji Seika Kaisha, Ltd., priority 2006, dated 2011)
Marks after values point to notes of the source that are not given here.

Legend:
rabbit eye (conjunctiva) = assay: Severe eye irritation test using rabbits; type: in vivo; conditions: 1%, instillation six times per day at 30 min intervals for two days
allergic rhinitis = assay: Prophylactic effect on allergic rhinitis, oral administration; type: in vivo, rat; conditions: 15 min before antigen administration
Description: The prophylactic effect of compound B on allergic rihinitis in the same manner as in Test Example 4-1, except that compound B was suspended in hydroxypropylmethylcellulose and the suspension was orally administered. The medicament was administered 15 min before the administration of the antigin (start of allergy).

[1] = WO 99/16770; cited from earlier work

SMILES: COc1cc2[nH]c(=O)c3nn(C(OC(=O)OC(C)C)C(C)C)nc3c(=O)c2cc1OC (stereo not shown) [Compound B, 2-(1-Isopropoxycarbonyloxy-2-methylpropyl)-7,8-dimethoxy-4(5H),10-dioxo-2H-1,2,3-triazolo[4,5-c][1]benzazepine]
- eye irritation (rabbit eye (conjunctiva)): only slight reddening of the conjunctiva was observed
- Increase in dye leakage amount Inhibition ratio (allergic rhinitis; 1 mg/kg (200 μg/rat)): 46.3% **
- Increase in dye leakage amount Inhibition ratio (allergic rhinitis; 5 mg/kg (1000 μg/rat)): 81.9% **
- improvement of absorption upon oral administration as compared with compound A [1]: by a factor of seven
